Values quoted from earlier work in patent publication US8575191B2, “Methods for treatment of non-small cell lung cancer” (priority 2010, dated 2013).

Test system: NSCLC

C#Cc1cccc(Nc2ncnc3cc(OCCOC)c(OCCOC)cc23)c1 [erlotinib]
survival HR compared to placebo (adenocarcinoma): 0.8
response rate (unselected NSCLC patients previously treated with chemotherapy): 9%
